Assay results published in ChEMBL document CHEMBL5126571, “Development of pyrazolo[3,4-d]pyrimidin-4-one scaffold as novel CDK2 inhibitors: Design, synthesis, and biological evaluation” (Bioorg Med Chem Lett, 2022).

Target: Cyclin-dependent kinase 2 (Homo sapiens, UniProt P24941)
Experiment: Binding affinity to CDK2 (unknown origin)

In order of rising Ki:
1. CC(C)(C)n1nc(-c2cccc(NC(=O)/C(C#N)=C/c3ccccc3O)c2)c2c(=O)[nH]cnc21  0.35 µM
2. CC(C)(C)n1nc(-c2cccc(NC(=O)/C(C#N)=C/c3ccc(O)cc3)c2)c2c(=O)[nH]cnc21  0.52 µM
3. CC(C)(C)n1nc(-c2cccc(NC(=O)/C(C#N)=C/c3ccccc3Br)c2)c2c(=O)[nH]cnc21  1.31 µM
4. CC(C)(C)n1nc(-c2cccc(NC(=O)/C(C#N)=C/c3ccc(C(=O)O)cc3)c2)c2c(=O)[nH]cnc21  1.4 µM
5. CC(C)(C)n1nc(-c2cccc(NC(=O)/C(C#N)=C/c3cc([N+](=O)[O-])cc([N+](=O)[O-])c3)c2)c2c(=O)[nH]cnc21  1.64 µM
6. CC(C)(C)n1nc(-c2cccc(NC(=O)/C(C#N)=C/c3ccc([N+](=O)[O-])cc3)c2)c2c(=O)[nH]cnc21  1.95 µM
7. CC(C)(C)n1nc(-c2cccc(NC(=O)/C(C#N)=C/c3ccccc3)c2)c2c(=O)[nH]cnc21  2.2 µM
8. CC(C)(C)n1nc(-c2cccc(NC(=O)/C(C#N)=C/c3cccc([N+](=O)[O-])c3)c2)c2c(=O)[nH]cnc21  2.46 µM
9. CC(C)(C)/C=C(\C#N)C(=O)Nc1cccc(-c2nn(C(C)(C)C)c3nc[nH]c(=O)c23)c1  2.57 µM
10. CC(C)(C)n1nc(-c2cccc(NC(=O)/C(C#N)=C/c3ccc(F)cc3)c2)c2c(=O)[nH]cnc21  2.87 µM
11. CC(C)(C)n1nc(-c2cccc(NC(=O)/C(C#N)=C/c3cccc(Cl)c3)c2)c2c(=O)[nH]cnc21  3.1 µM
12. CC(C)(C)n1nc(-c2cccc(NC(=O)/C(C#N)=C/c3ccc(Br)cc3)c2)c2c(=O)[nH]cnc21  3.63 µM
13. Cc1cc(NS(=O)(=O)c2ccc(Nc3n[nH]c4nc[nH]c(=O)c34)cc2)no1  4.84 µM
14. CC(C)(C)n1nc(-c2cccc(NC(=O)/C(C#N)=C/c3cccc(C(F)(F)F)c3)c2)c2c(=O)[nH]cnc21  5.59 µM
15. CC(C)(C)n1nc(-c2cccc(NC(=O)/C(C#N)=C/C=C/c3ccccc3)c2)c2c(=O)[nH]cnc21  6.25 µM
16. COc1ccc(/C=C(\C#N)C(=O)Nc2cccc(-c3nn(C(C)(C)C)c4nc[nH]c(=O)c34)c2)cc1  9.7 µM
17. CCCC/C=C(\C#N)C(=O)Nc1cccc(-c2nn(C(C)(C)C)c3nc[nH]c(=O)c23)c1  11.6 µM
18. CC(C)(C)n1nc(-c2cccc(NC(=O)/C(C#N)=C/c3ccccc3[N+](=O)[O-])c2)c2c(=O)[nH]cnc21  12.3 µM
19. CC(C)(C)n1nc(-c2cccc(NC(=O)/C(C#N)=C/c3cccc(Br)c3)c2)c2c(=O)[nH]cnc21  14.7 µM

System: MCF7
Experiment: Antiproliferative activity against human MCF7 cells at 4 uM by CCK-8 assay
Format: functional

`CC(C)(C)n1nc(-c2cccc(NC(=O)/C(C#N)=C/c3ccccc3)c2)c2c(=O)[nH]cnc21` gave an inhibition at 4 µM of 30%.

System: MCF7
Experiment: Antiproliferative activity against human MCF7 cells by CCK-8 assay
Format: functional, cell-based

In order of falling IC50:
1. CC(C)(C)n1nc(-c2cccc(NC(=O)/C(C#N)=C/c3ccccc3)c2)c2c(=O)[nH]cnc21  21.7 µM
2. COc1cc([C@@H]2c3cc4c(cc3[C@@H](O[C@@H]3O[C@@H]5CO[C@@H](C)O[C@H]5[C@H](O)[C@H]3O)[C@H]3COC(=O)[C@H]23)OCO4)cc(OC)c1O [ETOPOSIDE]  18.8 µM
